Source: patent US6989396B2, “Tropane alkaloid multidrug resistance inhibitors from Erythroxylum pervillei and use of the same” (The Board of Trustees of the University of Illinois, priority 2001, dated 2006)
pIC50: −log10 of the molar value. Marks after values point to notes of the source that are not given here.

Legend:
KB-3 cells = assay: Growth inhibitory potential (sulforhodamine B cell survival assay): KB-3; assay type: cell-based; settings: Homo sapiens, KB3, 72 h, read-out: IC50 KB-3
KB-8-5 cells = assay: Reversal of MDR, cell survival assay: KB-8-5 with or without colchicine; assay type: cell-based, human; settings: for Ratio of IC50 values KB-3/[KB-8-5 (+)] / Ratio of IC50 values [KB-8-5 (−)]/[KB-8-5 (+)]: colchicine 10 ng/ml
Protocol: Cytotoxic potential. The cytotoxic potential of test substances with KB-3, KB-V1 and KB-8-5 cells was determined as described previously (24). Briefly, various concentrations of test compounds (dissolved in 10 μl of 10% DMSO) were transferred to 96-well plates, and 190 μl aliquots of cell suspensions (5×10^4 cells/ml) were added to each well. The plates then were incubated for 72 hours at 37° C. (100% humidity with a 5% CO2 atmosphere in air), and 100 μl of cold 20% aqueous trichloroacetic acid were added to the growth medium in each well to fix the cells. The cultures were incubated at 4° C. for 30 minutes, washed, air-dried, stained with sulforhodamine B solution, and washed with 1% acetic acid. […] In each case, a zero-day control was performed by adding an equivalent number of cells to several wells and incubating at 37° C. for 30 minutes, and processing as described above. Optical density values obtained with the zero-day control were subtracted, and cell survival, relative to control (solvent-treated) cultures, was calculated. The cytotoxic potential of the compounds with CEM and CEM/VLB100 cells was determined as described by Beck et al. (30). Cells were grown in 24-well plates at a density of 5–6×10^5 cells/ml. At 48 hours, the cell number was determined using a Coulter Counter, with a channelizer to distinguish cells from debris.

KB-V1 cells = assay: In vivo hollow fiber test: KB-V1; design: species or system NCr nu/nu mice
[1] = summation of single-agent inhibitions

COc1cc(C=CC(=O)O[C@H]2[C@@H](O)[C@@H]3C[C@H](OC(=O)c4cc(OC)c(OC)c(OC)c4)C[C@H]2N3C)cc(OC)c1OC [Compound 3, 3α-(3,4,5-trimethoxybenzoyloxy)-6β-(3,4,5-trimethoxycinnamoyloxy)-7β-hydroxytropane]
pIC50 (KB-3 cells): 4.62
pIC50 (KB-8-5 cells; Homo sapiens): 4.85
Ratio of IC50 values KB-3/[KB-8-5 (+)] (KB-8-5 cells; listed as Pervilleine A): 40.3^d
Ratio of IC50 values [KB-8-5 (−)]/[KB-8-5 (+)] (KB-8-5 cells; listed as Pervilleine A): 23.3^d
Ratio of IC50 values KB-3/[KB-8-5 (+)] (KB-8-5 cells; listed as pervilleine A): 40.3
Ratio of IC50 values [KB-8-5 (−)]/[KB-8-5 (+)] (KB-8-5 cells; listed as pervilleine A): 23.3
inhibition of cell growth when used in combination with vinblastine (KB-V1 cells; KB-V1 or KB-8-5 cells in hollow fibers implanted into NCr nu/nu mice): up to 75%
Calculated inhibition (vinblastine + reversing agent as single agents), KB-V1, i.p. site (KB-V1 cells; [1]): 2%
Calculated inhibition (vinblastine + reversing agent as single agents), KB-V1, s.c. site (KB-V1 cells; [1]): 3.3%
Observed inhibition from coadministration with vinblastine, KB-V1, s.c. site (KB-V1 cells; vinblastine 250 μg/kg + reversing agent 0.136 mmol/kg): 14.6 (P = 0.188) %
Observed inhibition from coadministration with vinblastine, KB-V1, i.p. site (KB-V1 cells; vinblastine 250 μg/kg + reversing agent 0.136 mmol/kg, i.p. injection once daily days 3–6, listed as pervilleine A): 68.6 (P < 0.0001) %
Growth inhibition, single agent, KB-V1, s.c. site (KB-V1 cells; vinblastine 250 μg/kg, reversing agents 0.136 mmol/kg, i.p. injection once daily days 3–6): 3.3%
Growth inhibition, single agent, KB-V1, i.p. site (KB-V1 cells; vinblastine 250 μg/kg, reversing agents 0.136 mmol/kg, i.p. injection once daily days 3–6, fibers retrieved day 7, MTT): 1%
